From ChEMBL document CHEMBL1157550, “Incorporation of fluorinated phenylalanine generates highly specific inhibitor of proteasome's chymotrypsin-like sites” (J Med Chem, 2010)
Calls of active or inactive are those of the source. The rule behind the calls is not given here.

How the values were obtained:
[1] = molecular target: T1, Proteasome Macropain subunit MB1 (Homo sapiens) (UniProt P28074); test: Displacement of fluorescent labeled MV151 from 26S proteasome beta 5 in human HEK293 cell lysate assessed as residual activity at 100 uM after 1 hr by SDS-PAGE; type: cell-free
T1 sequence (whole entry): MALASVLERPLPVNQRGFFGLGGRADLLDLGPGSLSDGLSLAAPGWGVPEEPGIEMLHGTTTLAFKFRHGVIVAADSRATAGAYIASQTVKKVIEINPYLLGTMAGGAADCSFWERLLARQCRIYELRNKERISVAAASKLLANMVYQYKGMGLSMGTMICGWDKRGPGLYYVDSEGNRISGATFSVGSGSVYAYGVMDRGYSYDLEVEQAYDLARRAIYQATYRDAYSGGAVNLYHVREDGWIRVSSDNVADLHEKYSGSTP

[2] = molecular target: Proteasome Macropain subunit (Homo sapiens) (UniProt P49721); test: Inhibition of 26S proteasome beta 2 in human HEK293 cell lysate assessed as residual activity at 0.167 uM after 1 hr; type: cell-free
[3] = molecular target: Proteasome Macropain subunit (Homo sapiens) (UniProt P49721); test: Inhibition of 26S proteasome beta 2 in human HEK293 cell lysate assessed as residual activity at 0.019 uM after 1 hr; type: cell-free
[4] = molecular target: Proteasome subunit beta type-5 (Homo sapiens) (UniProt P28074); test: Inhibition of 26S proteasome beta 5 in human HEK293 cell lysate assessed as residual activity at 1.5 uM after 1 hr
[5] = molecular target: T2, Proteasome component C5 (Homo sapiens) (UniProt P20618); test: Displacement of fluorescent labeled MV151 from 26S proteasome beta 1 in human HEK293 cell lysate assessed as residual activity at 1 uM after 1 hr by SDS-PAGE; type: cell-free
T2 sequence (whole entry): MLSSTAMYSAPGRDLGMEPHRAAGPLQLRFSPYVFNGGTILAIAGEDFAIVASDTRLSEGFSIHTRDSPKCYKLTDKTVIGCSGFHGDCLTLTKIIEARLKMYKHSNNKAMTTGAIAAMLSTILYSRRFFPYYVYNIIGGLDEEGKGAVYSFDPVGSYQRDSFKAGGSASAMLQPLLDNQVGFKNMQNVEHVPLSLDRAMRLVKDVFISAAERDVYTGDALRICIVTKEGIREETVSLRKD

[6] = molecular target: T2, Proteasome component C5 (Homo sapiens); test: Inhibition of 26S proteasome beta 1 in human HEK293 cell lysate assessed as residual activity at 13.5 uM after 1 hr; type: cell-free
[7] = molecular target: Proteasome Macropain subunit (Homo sapiens) (UniProt P49721); test: Inhibition of 26S proteasome beta 2 in human HEK293 cell lysate assessed as residual activity at 0.5 uM after 1 hr; type: cell-free
[8] = molecular target: Proteasome Macropain subunit (Homo sapiens) (UniProt P49721); test: (§1) Inhibition of 26S proteasome beta 2 in human HEK293 cell lysate assessed as residual activity at […] after 1 hr; type: cell-free
[9] = molecular target: T2, Proteasome component C5 (Homo sapiens); test: Inhibition of 26S proteasome beta 1 in human HEK293 cell lysate assessed as residual activity at 0.167 uM after 1 hr; type: cell-free
[10] = molecular target: Proteasome Macropain subunit (Homo sapiens) (UniProt P49721); test: Inhibition of 26S proteasome beta 2 in human HEK293 cell lysate assessed as residual activity at 0.006 uM after 1 hr; type: cell-free
[11] = molecular target: T2, Proteasome component C5 (Homo sapiens); test: (§2) Inhibition of 26S proteasome beta 1 in human HEK293 cell lysate assessed as residual activity at […] after 1 hr; type: cell-free
[12] = molecular target: T2, Proteasome component C5 (Homo sapiens); test: Inhibition of 26S proteasome beta 1 in human HEK293 cell lysate assessed as residual activity at 1.5 uM after 1 hr; type: cell-free
[13] = molecular target: Proteasome Macropain subunit (Homo sapiens) (UniProt P49721); test: Inhibition of 26S proteasome beta 2 in human HEK293 cell lysate assessed as residual activity at 13.5 uM after 1 hr; type: cell-free
[14] = molecular target: T2, Proteasome component C5 (Homo sapiens); test: as §2; type: cell-free; remark: listed apart in the source
[15] = molecular target: Proteasome Macropain subunit (Homo sapiens) (UniProt P49721); test: Displacement of fluorescent labeled MV151 from 26S proteasome beta 2 in human HEK293 cell lysate assessed as residual activity at 1 uM after 1 hr by SDS-PAGE; type: cell-free
[16] = molecular target: Proteasome subunit beta type-5 (Homo sapiens) (UniProt P28074); test: Inhibition of 26S proteasome beta 5 in human HEK293 cell lysate assessed as residual activity at 0.002 uM after 1 hr
[17] = molecular target: T2, Proteasome component C5 (Homo sapiens); test: Inhibition of 26S proteasome beta 1 in human HEK293 cell lysate assessed as residual activity at 0.019 uM after 1 hr; type: cell-free
[18] = molecular target: Proteasome Macropain subunit (Homo sapiens) (UniProt P49721); test: Inhibition of 26S proteasome beta 2 in human HEK293 cell lysate assessed as residual activity at 0.002 uM after 1 hr; type: cell-free
[19] = molecular target: T2, Proteasome component C5 (Homo sapiens); test: Displacement of fluorescent labeled MV151 from 26S proteasome beta 1 in human HEK293 cell lysate assessed as residual activity at 100 uM after 1 hr by SDS-PAGE; type: cell-free
[20] = molecular target: Proteasome subunit beta type-5 (Homo sapiens) (UniProt P28074); test: Inhibition of 26S proteasome beta 5 in human HEK293 cell lysate assessed as residual activity at 0.5 uM after 1 hr
[21] = molecular target: Proteasome subunit beta type-5 (Homo sapiens) (UniProt P28074); test: Inhibition of 26S proteasome beta 5 in human HEK293 cell lysate assessed as residual activity at […] after 1 hr
[22] = molecular target: Proteasome subunit beta type-5 (Homo sapiens) (UniProt P28074); test: Inhibition of 26S proteasome beta 5 in human HEK293 cell lysate assessed as residual activity at 0.006 uM after 1 hr
[23] = molecular target: Proteasome Macropain subunit (Homo sapiens) (UniProt P49721); test: Inhibition of 26S proteasome beta 2 in human HEK293 cell lysate assessed as residual activity at 0.001 uM after 1 hr; type: cell-free
[24] = molecular target: Proteasome subunit beta type-5 (Homo sapiens) (UniProt P28074); test: Inhibition of 26S proteasome beta 5 in human HEK293 cell lysate assessed as residual activity at 0.001 uM after 1 hr
[25] = molecular target: Proteasome Macropain subunit (Homo sapiens) (UniProt P49721); test: as §1; type: cell-free; remark: listed apart in the source
[26] = molecular target: Proteasome subunit beta type-5 (Homo sapiens) (UniProt P28074); test: Inhibition of 26S proteasome beta 5 in human HEK293 cell lysate assessed as residual activity at […] after 1 hr; remark: listed apart in the source
[27] = molecular target: Proteasome subunit beta type-5 (Homo sapiens) (UniProt P28074); test: Inhibition of 26S proteasome beta 5 in human HEK293 cell lysate assessed as residual activity at 13.5 uM after 1 hr
[28] = molecular target: Proteasome Macropain subunit (Homo sapiens) (UniProt P49721); test: Displacement of fluorescent labeled MV151 from 26S proteasome beta 2 in human HEK293 cell lysate assessed as residual activity at 100 uM after 1 hr by SDS-PAGE; type: cell-free
[29] = molecular target: T1, Proteasome Macropain subunit MB1 (Homo sapiens); test: Displacement of fluorescent labeled MV151 from 26S proteasome beta 5 in human HEK293 cell lysate assessed as residual activity at 1 uM after 1 hr by SDS-PAGE; type: cell-free
[30] = molecular target: T2, Proteasome component C5 (Homo sapiens); test: Inhibition of 26S proteasome beta 1 in human HEK293 cell lysate assessed as residual activity at 0.006 uM after 1 hr; type: cell-free
[31] = molecular target: Proteasome Macropain subunit (Homo sapiens) (UniProt P49721); test: Inhibition of 26S proteasome beta 2 in human HEK293 cell lysate assessed as residual activity at 1.5 uM after 1 hr; type: cell-free
[32] = molecular target: T2, Proteasome component C5 (Homo sapiens); test: Inhibition of 26S proteasome beta 1 in human HEK293 cell lysate assessed as residual activity at 0.001 uM after 1 hr; type: cell-free
[33] = molecular target: T2, Proteasome component C5 (Homo sapiens); test: Inhibition of 26S proteasome beta 1 in human HEK293 cell lysate assessed as residual activity at 0.002 uM after 1 hr; type: cell-free
[34] = molecular target: Proteasome subunit beta type-5 (Homo sapiens) (UniProt P28074); test: Inhibition of 26S proteasome beta 5 in human HEK293 cell lysate assessed as residual activity at 0.167 uM after 1 hr
[35] = molecular target: Proteasome subunit beta type-5 (Homo sapiens) (UniProt P28074); test: Inhibition of 26S proteasome beta 5 in human HEK293 cell lysate assessed as residual activity at 0.019 uM after 1 hr
[36] = molecular target: T2, Proteasome component C5 (Homo sapiens); test: Inhibition of 26S proteasome beta 1 in human HEK293 cell lysate assessed as residual activity at 0.5 uM after 1 hr; type: cell-free
[37] = molecular target: T2, Proteasome component C5 (Homo sapiens); test: Displacement of fluorescent labeled MV151 from 26S proteasome beta 1 in human HEK293 cell lysate assessed as disappearance of band at 0.1 to 1 uM after 1 hr by SDS-PAGE; type: cell-free
[38] = molecular target: T1, Proteasome Macropain subunit MB1 (Homo sapiens); test: Displacement of fluorescent labeled MV151 from 26S proteasome beta 5 in human HEK293 cell lysate assessed as disappearance of band at 0.1 to 1 uM after 1 hr by SDS-PAGE; type: cell-free

Chain of Proteasome Macropain subunit (Homo sapiens) (P49721 whole entry): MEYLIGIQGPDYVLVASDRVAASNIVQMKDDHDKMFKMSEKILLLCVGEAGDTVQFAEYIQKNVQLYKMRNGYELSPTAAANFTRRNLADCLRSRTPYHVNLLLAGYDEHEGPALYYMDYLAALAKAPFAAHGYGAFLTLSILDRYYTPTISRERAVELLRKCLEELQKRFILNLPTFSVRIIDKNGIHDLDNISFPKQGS

Row | Activity [1] | Activity [2] | Activity [3] | Activity [5] | Activity [6] | Activity [7] | Activity [8] | Activity [9] | Activity [11] | Activity [12] | Activity [13] | Activity [14] | Activity [15] | Activity [19] | Activity [25] | Activity [28] | Activity [29] | Activity [31] | Activity [36] | SMILES | Activity [4] | further results
1 | 2.6% | 112% | 111% | 156% | 50.3% | 99.1% | 111% | 93.5% | 103% | 82.8% | 57.9% | 67.7% | 4.3% | 61% | 77.1% | 92% | 45% | 97.3% | 89.9% | CC(C)C[C@H](NC(=O)[C@H](Cc1cc(C(F)(F)F)cc(C(F)(F)F)c1)NC(=O)[C@H](Cc1ccccc1)NC(=O)[C@H](Cc1ccccc1)N=[N+]=[N-])C(=O)[C@@]1(C)CO1 | 9.5% | Activity [10]: 105%; Activity [16]: 97%; Activity [17]: 98.1%; Activity [18]: 99.6%; Activity [20]: 19.7%; Activity [21]: 5.2%; Activity [22]: 92.2%; Activity [23]: 106%; Activity [24]: 109%; Activity [26]: 66.2%; Activity [27]: 3%; Activity [30]: 97.8%; Activity [32]: 106%; Activity [33]: 102%; Activity [34]: 34.9%; Activity [35]: 100%
2 | – | 121% | 102% | – | 1.3% | 118% | 118% | 68.7% | 92.1% | 12% | 110% | 3.1% | – | – | 118% | – | – | 135% | 40.4% | CC(C)C[C@H](NC(=O)[C@H](Cc1c(F)c(F)c(F)c(F)c1F)NC(=O)c1cnccn1)B1OC2C[C@@H]3C[C@@H](C3(C)C)[C@]2(C)O1 (stereo partly drawn) | – | Activity [10]: 104%; Activity [17]: 99.5%; Activity [18]: 99%; Activity [37]: Active; Activity [23]: 110%; Activity [38]: Active; Activity [30]: 97.5%; Activity [32]: 110%; Activity [33]: 96.1%
3 | 7.4% | – | – | 148% | – | – | – | – | – | – | – | – | 20.4% | 115% | – | 43.2% | 94.9% | – | – | CC(C)C[C@H](NC(=O)[C@H](Cc1c(F)c(F)c(F)c(F)c1F)NC(=O)[C@H](Cc1c(F)c(F)c(F)c(F)c1F)NC(=O)[C@H](Cc1ccccc1)N=[N+]=[N-])C(=O)[C@@]1(C)CO1 | – | –

Row | SMILES | Activity [1] | Activity [2] | Activity [3] | Activity [5] | Activity [6] | Activity [7] | Activity [8] | Activity [9] | Activity [11] | Activity [12] | Activity [13] | Activity [14] | Activity [15] | Activity [19] | Activity [25] | Activity [28] | Activity [29] | Activity [31] | Activity [36] | Activity [4] | further results
4 | CC(C)C[C@H](NC(=O)[C@H](Cc1ccccc1)NC(=O)[C@H](Cc1c(F)c(F)c(F)c(F)c1F)NC(=O)[C@H](Cc1ccccc1)N=[N+]=[N-])C(=O)[C@@]1(C)CO1 | 0.83% | 89.9% | – | 82.1% | 73.1% | 118% | 98.7% | 89.4% | 83.2% | 115% | 98.4% | 102% | 2.9% | 87.6% | 119% | 56.9% | 89.1% | 127% | 103% | 14.7% | Activity [20]: 29.7%; Activity [21]: 8%; Activity [26]: 56.2%; Activity [27]: 5.8%; Activity [34]: 48.9%
